Marks after values point to notes of the source that are not given here.
Experiments:
[1] = Plasma triglyceride measurement; type: in vivo, rat; conditions: 2 mmol/kg diet, 22 days; FIG. 2A
Protocol: Plasma Triglyceride Measurement. Bloods were drawn from anesthetized animals in the presence of EDTA as an anticoagulant, and the resulting plasma was used for the measurement of plasma “true” triglyceride levels using a kit from Sigma-Aldrich (Saint Louis, Mo.). Briefly, the total plasma triglyceride and glycerol concentrations were determined, and the glycerol component was subtracted from the total plasma triglyceride measurement to obtain the “true” serum triglyceride concentration.

[2] = Body weight change during retinoid feeding; type: in vivo, rat; conditions: 2 mmol/kg diet
Protocol: (§1) Animal Studies: Mammary tumors were induced by intragastric intubation of 50-day old female Sprague-Dawley rats (Harlan Industries, Indianapolis, Ind.) with a single dose of 15 mg DMBA in 1.0 ml of sesame oil per rat. The rats were then maintained on a powdered Teklad 22/5 rodent chow diet (W) 8640 (Harlan Industries, Indianapolis, Ind.), and allowed food and water ad libitum. Four months later, rats which had developed palpable tumors were randomly assigned to the experimental groups (4 rats/group). The retinoid-treated groups were fed diets supplemented with 2 mmol/kg diet of atRA, 4-HPR, or 4-HBRCG, respectively. The retinoids were added to the diet in a vehicle consisting of 25 ml of ethanol: tricaprylin (1:4 v/v) plus 2% (w/v) of α-tocopherol as previously described.^9 This vehicle was also added to the control diet. The additives were blended into the chow diets using a Hobart food mixer. The diets were fed in stainless steel feeders designed with food hoppers. The food was replaced weekly with freshly prepared diets. Food consumption was determined once weekly, and from that the average daily consumption/rat was estimated. These diets were continuously fed for 22 days. Animals were also weighted weekly and monitored for general health status and signs of possible toxicity due to treatment.
(§2) Baseline measurement of initial tumor sizes, numbers and rat body weights were determined immediately before commencement of treatments, and final measurements were recorded just prior to sacrifice of the animals. Animals were palpated for tumors twice weekly and tumor diameters were measured weekly by a micrometer caliper. Tumor volumes were calculated using the formula [V= 4/3 πr^3] where r is one-half the mean of the sum of the largest diameter and the axis at right angle to it. All tumors as well as lungs, liver, kidney and femur were excised at the end of the experiment for chemical and histopathological evaluation. Blood samples were also taken from each animal for determination of plasma retinol and triglyceride levels.

[3] = Femur bone mineral content; type: in vivo, rat; conditions: end of feeding study; FIG. 2B
Description: Bone Mineral Content. The femur was disarticulated from the leg, and the adhering soft tissue was removed by dissection. Femurs were scanned using the Lunar PIXImus 2 system (Model X2608, General Electric using the LUNAR software version 1.45), and control measurements were made using the small animal quality control phantom. Femurs were scanned 5 times each with re-positioning at each measure. The average value of the bone mineral content (BMC) in grams for each animal is reported as one independent measure.

CYP26B1 mRNA = assay: Induction of CYP26B1 mRNA in lung (Q-PCR); type: in vivo, rat; conditions: at sacrifice, retinoid-fed rats, 2 mmol/kg diet; data not shown
[4] = Terminal plasma drug levels (plasma retinoid assay, HPLC); type: in vivo, rat; conditions: female, Sprague-Dawley, rat, plasma, oral; day 22 of treatment; 2 mmol/kg diet; ± SEM; read-out: Plasma retinoid concentration (terminal plasma drug level)
Protocol: Plasma Retinoid Assay. To 500 μL of plasma was added 150 μL of ethanol containing 0.75 μg of internal standard (N-(4-chlorophenyl) retinamide). After mixing 30 sec., 500 μL of ethyl acetate was added followed by 1 min. of mixing and centrifugation for 5 minutes at 1000 rpm in an IEC CL centrifuge. The ethyl acetate layer was removed and syringe filtered through a 0.45 um filter. The ethyl acetate extraction was repeated two more times. The combined extracts were evaporated and the residue reconstituted in 100 μL of methanol. The methanol extract (20 μL) was analyzed by HPLC on a Beckman Instruments model 127 instrument equipped with a model 166 UV detector. Chromatography was done on a precolumn equipped 250×4.6 mm Bechman Ultrasphere ODS column with an 85% methanol/water mobile phase (both containing 10 mM ammonium acetate) flowing at 1 mL/min. Analysis for both internal standard and retinol was conducted at 350 nm and internal standard recoveries and retinol levels were determined by comparison with standard curves, with adjustment of the retinol level based on recovery. Recoveries of internal standard averaged ca. 78%. […] In the 4-HPR treated group, plasma levels of this retinoid were evaluated simultaneously in the same samples as above. In order to avoid interfering substances, plasma treatment retinoid levels for RA and 4-HBRCG were measured using the above system and a step gradient of 75% methanol for 15 min. followed by 85% methanol for 40 minutes.

CYP26A1 mRNA = assay: Induction of CYP26A1 mRNA in liver (Q-PCR); type: in vivo, rat; conditions: at sacrifice, retinoid-fed rats, 2 mmol/kg diet; FIG. 4
[5] = system: DMBA-induced rat mammary tumor; assay: DMBA-induced rat mammary tumor model, retinoid-containing diets; type: in vivo
Protocol: Preliminary evaluation of the mammary tumor chemotherapeutic activity of 4-HBRCG (7) was conducted, and its toxicity profile was also assessed. As previously described,^7, 12 tumor-bearing female rats (treated ca. 50 days earlier with 7,12-dimethylbenz(a)anthracene [DMBA]) were fed the control or retinoid-containing diets (RA (2), 4-HPR (3) or 4-HBRCG (7)) at 2 mmole/kg diet for 22 days.
as §1, §2

[6] = system: nuclear retinoic acid receptors (RAR); conditions: cited from earlier work
[7] = number of individual tumors, 2 mmol/kg diet, 22 days

| SMILES | Effect on serum triglyceride concentration [1] | Effect on normal body weight gain ([2]; feeding period) | % Weight change ([2]; relative to baseline body weight over 22 days) | Effect on femur bone mineral content vs control [3] | Induction of CYP26B1 mRNA in lung (CYP26B1 mRNA) | concentration at 22 day [4] | Induction of CYP26A1 mRNA in liver (CYP26A1 mRNA) | % Change in tumor volume from baseline ([5]; 2 mmol/kg diet for 22 days) | Final tumor volume ([5]; 2 mmol/kg diet for 22 days, mean ± SEM) | Initial tumor volumes ([5]; baseline before treatment, mean ± SEM) | Complete regression (tumors that totally disappeared) [5, 7] | No effect [5, 7] | Partial regression (tumors with 25-75% decrease in volume) [5, 7] | New tumors ([5]; number of tumors, 2 mmol/kg diet, 22 days) | Affinity for binding to nuclear RAR relative to RA [6] |
| --- | --- | --- | --- | --- | --- | --- | --- | --- | --- | --- | --- | --- | --- | --- | --- |
| CC1=C(/C=C/C(C)=C/C=C/C(C)=C/C(=O)O)C(C)(C)CCC1 [Retinoic acid (2), all-trans retinoic acid] | dramatically increased serum triglyceride concentration | significant reduction in normal body weight gain | +0.2 ^d % | significant reduction in femur BMC | 46 fold above control | 300 ± 100 ng/mL | 67 fold above control | −38 ^d % | 0.05 ± 0.02 cm^3 | 0.08 ± 0.03 cm^3 | 1 | 1 | 8 | 0 | – |
| CC1=C(/C=C/C(C)=C/C=C/C(C)=C/C(=O)Nc2ccc(O[C@@H]3O[C@H](C(=O)O)[C@@H](O)[C@H](O)[C@H]3O)cc2)C(C)(C)CCC1 [compound 5, N-(4-hydroxyphenyl) retinamide-O-glucuronide] | – | – | – | – | – | – | – | – | – | – | – | – | – | – | low affinity relative to RA |
| CC1=C(/C=C/C(C)=C/C=C/C(C)=C/C(=O)Nc2ccc(CC3OC(C(=O)O)C(O)C(O)C3O)cc2)C(C)(C)CCC1 (stereo not shown) [compound 6, N-(4-hydroxyphenyl) retinamide-C-glucuronide] | – | – | – | – | – | – | – | – | – | – | – | – | – | – | low affinity relative to RA |

— patent US9359322B2, “C-linked glucuronide of N-(4-hydroxybenzyl) retinone, analogs thereof, and methods of using the same to inhibit neoplastic cell growth” (Wisconsin Alumni Research Foundation, priority 2005, dated 2016)
